Reference: patent US20040167028A1, “Method of introducing a substance into plant tissue” (HAMAMATSU PHOTONICS K.K., priority 2002, published 2004)
Where two headings read alike, the source gives them in different places.

Tested on: tomato plant
Description: According to the method of the invention, information relating to the amount, speed and site of introduction of the substance introduced into the plant tissue can be obtained, for example, using a positron imaging apparatus. With a positron imaging apparatus, information on the measuring target is obtained by introducing a substance labeled with positron-emitting RI as a tracer into a living body, and measuring the pair of gamma-rays produced as the positrons emitted from the RI-labeled substance are annihilated against electrons in the substance (see, for example, Japanese Patent Application Laid-Open No. 9-33658).
FIG. 5 is a view showing the basic construction of a positron imaging apparatus. The apparatus shown in this drawing comprises a pair of two-dimensional radiation detectors 60 and 70. The two-dimensional radiation detectors 60 and 70 in turn comprise scintillator arrays 61,71 each composed of a plurality of scintillators, and photodetectors 62,72 for detection of scintillation light generated by incidence of the gamma-rays on the scintillator arrays 61,71. The radiation detectors 60,70 are housed in separate detector cases 65,75 with the radiation incidence planes of the scintillator arrays 61,71 facing each other.
In this construction, a pair of gamma-rays emitted from a measuring target B (a plant, according to the invention) placed on a prescribed measuring surface S between the radiation detectors 60,70 are each detected by the radiation detectors 60,70. The detection signals are outputted through connected circuit systems 63,73 having amplifier circuits, etc. for amplification of the detection signals. The outputted amplification signals are inputted into a signal processing circuit 80, and the signal processing circuit 80 identifies coincident electron/positron annihilation events and calculates the position of the annihilation, based on the detection signals from the two radiation detectors 60,70.
Tomato (Merryroad variety) approximately 4 weeks after sprouting was used as the test plant. After removing a leaf at the end of the 6th side branch from the bottom of the main stem, the end was cut in the water for use as the absorption site (conductive tissue-exposed side branch) FIG. 6 is a schematic view showing the arrangement of the main stem 3 and side branches 2 of the tomato plant used in this experiment. The absorption site was located at the end of the side branch 2 extending toward the left in FIG. 6.
FIG. 7 is an integrated image obtained from the positron imaging apparatus, with the integrated image positioned to correspond to the positions of the main stem and side branch in FIG. 6.
Next, all of the leaves on the substance-absorbed side branch 2 of the tomato plant used in Comparative Example 1 were removed. […] FIG. 8 is the integrated image obtained from the positron imaging apparatus, with the integrated image positioned to correspond to the positions of the, main stem and side branch in FIG. 6.
Using a different tomato plant from that used in Example 1 (the same variety but a different plant), a leaf at the end of the 6th side branch from the bottom of the main stem was removed in the same manner as Example 1, and the end was cut in the water for use as the absorption site in the same manner as Comparative Example 1. The other leaves on that side branch were shaded by covering them with aluminum foil to inhibit transpiration. FIG. 10 is a schematic view showing the arrangement of the main stem 3 and side branches 2 of the tomato plant used in this experiment. The absorption site was located at the end of the upper side branch 2 of the side branches 2 extending toward the left in FIG. 10.

O=[N+]([O-])O [^13N-labeled nitric acid]
migration of the substance in the main stem (integrated image) (Comparative Example 1, side branch with leaves, no inhibition of transpiration, FIG. 7): almost all of the substance migrated downward in the main stem | introduction of the substance into the side branch (integrated image) (Comparative Example 2, leaves unshaded, no inhibition of transpiration, FIG. 12): very little of the substance had been introduced | amount of substance introduction (RI accumulation / nitric acid absorption at the node) (Example 1, all leaves of the absorbing side branch removed, versus Comparative Example 1 with leaves, observed for 1 hour, FIG. 9): over twice | migration of the substance in the main stem (integrated image) (Example 1, leaves of the side branch removed, FIG. 8): Upward migration was also confirmed in the main stem | amount of substance introduction (RI accumulation at the node) (Example 2, leaves of the absorbing side branch shaded with aluminum foil, versus Comparative Example 2 unshaded, FIG. 13): over twice | migration of the substance in the main stem (integrated image) (Example 2, leaves shaded to inhibit transpiration, FIG. 11): upward migration occurred in the main stem | introduction of the substance into the plant (integrated image) (Example 4, sieve tubes of the side branch eliminated by heating at about 100° C., vessels alone, FIG. 16): the substance had been introduced into the plant
